Assay results as given in US7776558B2, “Human G protein-coupled receptor and modulators thereof for the treatment of cell death-related disorders” (Arena Pharmaceuticals, Inc., priority 2003, dated 2010).
Several values for one entry are separate records, joined by “and”; a condition that tells them apart may be missing. Equal entries are not always repeated. Entries after “also recorded” stand apart in the source; their conditions may differ. Where two headings read alike, the source gives them in different places. Where no end group is shown, it is not given here.

Columns and labels:
[1] = target: T1, FPR (Homo sapiens, UniProt P21462); assay: IP3 assay, HEK293 cells transiently transfected with FPR (negative control); type: cell-based; set-up: Full-Length Cloning of Human GPCRs; expressed in transfected cells; host or cells: HEK293 cells, transient; conditions: not shown
T1 sequence (P21462 1-350): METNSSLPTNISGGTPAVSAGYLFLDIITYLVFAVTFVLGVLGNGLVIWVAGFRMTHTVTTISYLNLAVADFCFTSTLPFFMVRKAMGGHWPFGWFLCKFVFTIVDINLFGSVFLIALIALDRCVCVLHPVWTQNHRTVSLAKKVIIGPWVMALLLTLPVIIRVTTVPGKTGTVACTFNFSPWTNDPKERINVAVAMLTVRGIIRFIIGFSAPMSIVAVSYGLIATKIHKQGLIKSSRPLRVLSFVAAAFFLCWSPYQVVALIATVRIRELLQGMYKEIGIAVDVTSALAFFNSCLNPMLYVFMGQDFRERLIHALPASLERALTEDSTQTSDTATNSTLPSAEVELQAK

[2] = target: T2, human FPRL2 (Homo sapiens, UniProt P25089); assay: [35S]GTPγS binding assay, membranes of transiently transfected CHO cells; type: biochemical; set-up: expressed in transfected cells; host or cells: CHO-K1 cells, transient, pCMV; plasma membranes
T2 sequence (P25089 with tags, fused parts or gaps): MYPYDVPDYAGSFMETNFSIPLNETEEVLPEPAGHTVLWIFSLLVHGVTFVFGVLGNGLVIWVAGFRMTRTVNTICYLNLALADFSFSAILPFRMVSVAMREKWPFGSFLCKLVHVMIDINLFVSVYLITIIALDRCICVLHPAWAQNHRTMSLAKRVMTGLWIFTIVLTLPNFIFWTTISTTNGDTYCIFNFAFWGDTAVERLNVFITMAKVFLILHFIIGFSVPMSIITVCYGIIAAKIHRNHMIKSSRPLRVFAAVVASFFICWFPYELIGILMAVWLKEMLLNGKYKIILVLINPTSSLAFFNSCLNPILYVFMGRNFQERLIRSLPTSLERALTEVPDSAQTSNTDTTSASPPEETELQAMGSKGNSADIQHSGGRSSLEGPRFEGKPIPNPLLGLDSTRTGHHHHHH
Method: The plasmids used were HA/V5 doubled tagged endogenous FPRL2 in pCMV, HA/V5 double-tagged endogenous FPRL1 in pCMV, HAN5 double-tagged endogenous FPR in pCMV, and pCMV alone (See, Example 1). Transient transfections were carried out on CHO-K1 cells. To a 15 cm dish of confluent cells, 12 μg of plasmid DNA and 60 μl Lipofectamine (Invitrogen, Carlsbad, Calif.) were added to each plate. Twenty-four hours post-infection, plasma membranes were isolated as described below. Assays were then run as described below.
“Membrane Scrape Buffer” consists of 20 mM HEPES and 10 mM EDTA, pH 7.4; “Membrane Wash Buffer” consists of […] and 0.1 mM EDTA, pH 7.4; “Binding. Buffer” consists of 20 mM HEPES, 100 mM NaCl, and 10 mM MgCl2, pH 7.4.
All materials were kept on ice throughout the procedure. Firstly, the media was aspirated from a confluent monolayer of transfected cells, followed by rinse with 10 ml cold PBS, followed by aspiration. Thereafter, 10 ml of Membrane Scrape Buffer was added to scrape cells; this was followed by transfer of cellular extract into 50 ml centrifuge tubes (centrifuged at 20,000 rpm for 17 minutes at 4° C.). Thereafter, the supernatant was aspirated and the pellet was resuspended in 30 ml Membrane Wash Buffer followed by centrifuging at 20,000 rpm for 17 minutes at 4° C. The supernatant was then aspirated and the pellet resuspended in Binding Buffer. This was then homogenized using a Brinkman Polytron™ homogenizer (15-20 second bursts until the all material is in suspension). This is referred to herein as “Membrane Protein”. A protein determination (Bradford Protein Assay) was carried out, and the protein concentration of the Membrane Protein was adjusted to 1.0 mg/ml with cold Binding Buffer for each of the experimental samples (FPRL2, FPRL1, FPR, pCMV).
GDP Buffer consisted of 37.5 ml Binding Buffer and 2 mg GDP (Sigma, cat. no. G-7127), followed by a series of dilutions in Binding Buffer to obtain 0.2 μM GDP (final concentration of GDP in each well was 0.1 μM GDP); each well comprising a candidate compound, has a final volume of 200 μl consisting of 100 μl GDP Buffer (final concentration, 0.1 μM GDP), 50 μl Membrane Protein in Binding Buffer, and 50 μl [35S]GTPγS (0.6 nM) in Binding Buffer (2.5 μl [35S]GTPγS per 10 ml Binding Buffer).
First, 100 μl GDP Buffer was added to each well of a Wallac Scintistrip™ (Wallac). […] Thereafter, 50 μl of Membrane Protein was added to each well (a control well comprising membranes without the GPCR Protein was also utilized), and pre-incubated for 5-10 minutes at room temperature. Thereafter, 50 μl of [^35S]GTPγS (0.6 nM) in Binding Buffer was added to each well, followed by incubation on a shaker for 60 minutes at room temperature (again, in this example, plates were covered with foil). The assay was then stopped by spinning of the plates at 4000 RPM for 15 minutes at 22° C. The plates were then aspirated with an 8 channel manifold and sealed with plate covers. The plates were then read on a Wallac 1450 using setting “Prot. #37” (as per manufacturer instructions).

[3] = read-out: EC50 in [35S]GTPγS binding assay
[4] = FIG. 3 panel A, transiently transfected CHO cells, read-out: EC50 at FPRL2, promoted [35S]GTPγS binding

EC50 values at FPRL2 relative to the corresponding values at FPRL1 ([2]; FPRL2 versus FPRL1) | Compound | IP3 response in HEK293 cells transiently transfected with FPR [1] | EC75 in [35S]GTPγS binding assay [2] | Activity at human FPRL2, FPRL1 and FPR ([2]; by [35S]GTPγS binding assay and by melanophore assay, FIG. 5) | EC50 [2, 3] | EC50 [2, 4] [nM] | Agonist activity and selectivity for FPRL2 ([2]; compared with FPRL1 and FPR, FIG. 3)
 | CC(C)c1ccc2c(c1)CCC1C(C)(C(N)=O)CCCC21C (centres unmarked) [Compound 1, 7-Isopropyl-1,4a-dimethyl-1,2,3,4,4a,9,10,10a-octahydro-phenanthrene-1-carboxylic acid amide] | no IP3 response | about 15 μM | robust and selective agonist of FPRL2 | ~2800 nM |  | 
 | CC[C@H](C)[C@H](NC(=O)[C@H](CCC(=O)O)NC(=O)[C@H](CO)NC(=O)[C@@H](NC(=O)[C@H](CC(C)C)NC(=O)[C@H](CC(C)C)NC(=O)[C@H](CC(C)C)NC(=O)[C@H](CC(C)C)NC(=O)[C@H](CS)NC(=O)[C@H](CO)NC(=O)[C@H](Cc1ccccc1)NC(=O)CNC(=O)[C@H](CCCNC(=N)N)NC(=O)[C@@H]1CCCN1C(=O)[C@H](C)NC(=O)[C@@H](N)CCSC)[C@@H](C)O)C(=O)N[C@@H](CC(=O)O)C(=O)N[C@@H](CC(C)C)C(=O)N1CCC[C@H]1C(=O)N[C@H](C(=O)N[C@@H](CCCCN)C(=O)N[C@@H](CCCNC(=N)N)C(=O)N[C@@H](CCCNC(=N)N)C(=O)N[C@@H](C)C(=O)O)C(C)C [Humanin] | no IP3 response | about 1.5 μM |  | ~320 nM and ~300 nM | ~320 | 
more than an order of magnitude lower | MAPRGFSCLLLLTGEIDLPVKRRA [[Gly14]-Humanin] |  |  |  |  | ~72 | selective and robust agonists for FPRL2; also recorded: robust and selective agonists for FPRL2
